From patent publication US10301348B2, “Compounds for use in prevention and treatment of neurodegenerative diseases and pain” (Academia Sinica, priority 2013, dated 2019)
“Also recorded” adds a separate entry of the source.

Legend:
[1] = Oral bioavailability / pharmacokinetic study in ICR mice; assay type: in vivo; conditions: male, mouse, plasma, oral 10 mg/kg vs intravenous 1 mg/kg
Procedure: To measure oral bioavailability of a test compound, blood samples were collected from male ICR mice (6 weeks old; 20-25 g) after oral (10 mg/kg) or intravenous (1 mg/kg) administrations of the test compound. The blood samples collected at the indicated periods were extracted with methanol containing 0.1% formic acid, and then 10 μL of each extracted sample were injected to UPLC-MSMS for quantitation.
Pharmacokinetic Study. The compound was administered as aqueous solutions in normal saline. Male ICR mice were purchased from BioLASCO Taiwan Co., Ltd. To measure oral bioavailability of test compounds (T1-11 and JMF3464), blood samples were collected from male ICR mice (6 weeks old; […]) after oral (10 mg/kg) or intravenous (1 mg/kg) administrations of test compounds. For T1-11, blood samples were collected at 2, 10, 30, 60, 120, 360 minutes after intravenous administration and at 15, 30, 45, 60, 120, 360 minutes after oral administration. For JMF3464, the blood samples were collected at 2, 10, 30, 60, 120, 240, 360, 480 minutes after intravenous administration and at 15, 30, 60, 90, 120, 240, 360, 480 minutes after oral administration. The blood samples were extracted by methanol with 0.1% formic acid, and then 10 μL of the extracted samples were injected to UPLC-MSMS to for quantitation.
The pharmacokinetic parameters were obtained using a pharmacokinetic program WinNonlin, fitting data to a noncompartmental model. […] The total plasma clearance (CL) was calculated as dose/AUCi.v.. The oral bioavailability (F) of the test compound by oral administration was calculated from the AUC0-∞ of the oral dose divided by the AUC0-∞ of the i.v. dose.

[2] = tested on: mutant ATXN2 aggregations; experiment: Filter retardation assay of mutant SCA2 protein aggregation in pSCA2-104Q-EGFP-transfected cells; assay type: cell-based, Rat; conditions: 10 μM, 24 h
Procedure: (§1) FIGS. 4A-B show the effects of T1-11 in preventing mutant SCA2 gene overexpression-induced protein aggregations and behavioral performance in SCA2 transgenic mice. (A) pSCA2-22Q-EGFP or pSCA2-104Q-EGFP-transfected cells were treated with 10 μM T1-11 or 10 μM JMF1907 (a T1-11-derived A2A-R agonist) for 24 h. Cells were harvested and subjected to a filter retardation assay or image acquisition. (B) Wild type (WT) or transgenic mice (SCA2) drank water with or without T1-11. Rotarod performance was used to measure the behavioral function of mice.
Rat PC12 cells purchased from American Type Culture Collection (ATCC; Manassas, Va., USA) were maintained in DMEM supplemented with 10% horse serum and 5% FBS and incubated in a CO2 incubator (5%) at 37° C. LIPOFECTAMINE™ 2000 (Invitrogen) was used as a vehicle to transfer plasmids into cells according to the manufacture's protocol. Plasmids were kindly provided by Dr. Pulst (Department of Neurology, University of Utah, USA). Normally, 5 μg of DNA combined with 5 μl of LIPOFECTAMINE™ 2000 was applied to each well of 6-well plates. The plating number was (1˜1.5)×10^6 cells/well. After transfections for 6 h, cells were treated with reagents for another 24 h. Images were taken with a Zeiss Axiovert 200M inverted fluorescence microscope (Göttingen, Germany).
Filter retardation assay. […]

[3] = tested on: SCA2 transgenic mice (ATAXN2^Q127); experiment: Rotarod performance of SCA2 transgenic mice; assay type: in vivo; conditions: compound in drinking water
Procedure: as §1
Animals. The C57BL/6 mice were purchased from National Laboratory Animal Center (Taiwan). The transgenic mice (ATAXN2^Q127) were provided by Dr. Pulst. Mice were kept in a soundproof room under a 12/12 h light/dark cycle and controlled temperature (22±2° C.). Food and water were available ad libitum. All efforts were made to minimize the number of animals used and their pain and discomfort, according to the principles and directives of the NIH Guide for the Care and Use of Laboratory Animals. […]
Rotarod performance. […] Motor coordination was assessed using a rotarod apparatus (UGO BASILE, Comerio, Italy) at an accelerated speed (10 to 28 rpm) over a period of 5 min. […] Latency to fall was automatically recorded. […]

[4] = tested on: mice with acid-induced chronic widespread pain; experiment: Acid-induced chronic widespread pain model of fibromyalgia; assay type: in vivo
Procedure: (§2) FIGS. 10A-C show the analgesic effect of JMF3464 on a mouse model of fibromyalgia. […] Open arrows indicate the time mice received acid injection. Black arrows indicate the time mice received T1-11 (p.o.). […] The analgesic effect of JMF3464 is dose-dependent. The effective dose started from 100 μg/kg (i.p.).
Acid-induced chronic widespread pain model. The fibromyalgia model was modified from the acid-induced chronic pain model established by Sluka's group (Sluka et al., 2003 Pain. 106:229-239).
Mice were briefly anesthetized with 2% vaporized isoflurane and received an i.m. injection of 20 μL genistein (1 μM) in the left gastrocnemius muscle. After 3 minutes, an injection of 20 μL acid saline (pH 4.0) was given to the same site. The mice then developed long-lasting mechanical hyperalgesia for more than 2 weeks. Analgesic effects of T1-11 (p.o. with an 0.9-mm/7-cm gavage) were tested 4 days after mice had developed the mechanical hyperalgesia. Mechanical hyperalgesia was assayed by testing the withdrawal response of mouse hindpaws to 0.2-mN von Frey filament stimulation.

[5] = tested on: mice treated with intermittent cold stress; experiment: Intermittent cold stress model of fibromyalgia; assay type: in vivo; conditions: T1-11 i.p.
Procedure: as §2
Intermittent cold stress model. The fibromyalgia model was developed by Ueda's group, in which mice were treated with intermittent cold stress for 2 days (Nishiyori and Ueda, 2008 Mol Pain. 4:52). Mice treated with intermittent cold stress developed long-lasting (>2 weeks) mechanical and thermal hyperalgesia. Analgesic effects of JMF3464 (i.p. or p.o.) were tested in these mice 5 days after intermittent cold stress. Mechanical hyperalgesia was assayed by testing the withdrawal response of mouse hindpaws to 0.2-mN von Frey filament stimulation.

[6] = background statement, species not given; cited from earlier work
[7] = tested on: SCA3 transgenic mice expressing ataxin-3-Q79; experiment: SCA3 transgenic mice: rotarod test and NeuN staining of pontine nuclei; conditions: 4-month-old SCA3 transgenic mice, daily oral 1 mg per day
Procedure: (A) SCA3 transgenic mice were given drinking water containing vehicle (0.2% DMSO) or T1-11 (0.1 mg/ml) beginning at 4 weeks-old.
Behavioral test. Balance and coordination functions of mice were determined by performing rotarod test. Mice were placed on the moving drum of a rotarod apparatus (Accelerating Model, Ugo Basile Biological Research Apparatus), which was then accelerated until mouse fell from the drum onto a plate to stop the timer. Latency to fall was measured in four daily trials over the course of 4 days.
Immunohistochemical staining. Wild-type or SCA3 transgenic mice were anesthetized and perfused transcardially with 4% paraformaldehyde in PBS. Brain was equilibrated in Tissue-Tek embedding medium and frozen in liquid nitrogen. Coronal sections (20 μm) prepared by cryostat sectioning were permeabilized in 0.1% Triton X-100, and incubated at 4° C. for 48 hours with diluted anti-NeuN monoclonal antiserum (Chemicon). Subsequently, sections were washed and incubated with biotinylated horse anti-mouse IgG followed by incubation with avidin-biotin-horseradish peroxidase complex. The sections were then washed and developed in a diaminobenzidine solution. NeuN-positive neurons were visualized and counted by a Leica DM2500 microscope equipped with a Retiga-2000R CCD camera (QImaging) and a 3-axis computer-controlled MAC 600 motorized stage (Ludl Electronics) with the aid of StereoInvestigator software (MBF Bioscience). Each analysis included the processing of 15 brain sections per mouse.

SMILES: OC[C@H]1O[C@@H](n2cnc3c(NCc4ccc(O)cc4)ncnc32)[C@H](O)[C@@H]1O [Compound T1-11, N^6-(4-hydroxybenzyl)adenosine]
- bioavailability [1]: 2.8%
- mutant ATXN2 aggregations [2]: effective is preventing mutant ATXN2 aggregations
- behavioral performance (rotarod) [3]: effective
- analgesic effect, i.p. ([4]; i.p.): excellent analgesic effects
- analgesic effect, oral administration ([4]; p.o., up to 2 mg/kg, von Frey mechanical hyperalgesia): no analgesic effect
- analgesic effect, i.p. [5]: excellent analgesic effects
- bioavailability (F) [6]: < 5%
- pontine neuronal death (NeuN staining) [7]: significantly ameliorated neuronal death in the pontine nuclei; also recorded: significantly alleviated pontine neuronal death
- rotarod performance [7]: significantly better than that of vehicle-treated ataxin-3-Q79 mice; also recorded: significantly improved rotarod performance
